Species: Rattus norvegicus
Assay: DrugMatrix - Regimen: Daily Repeat
Type: toxicity, organism-based, Sprague-Dawley
Design: regimen Daily Repeat, gender Male, age 6-8 weeks
Conditions: in vivo, ip, route intraperitoneal, vehicle 100 % SALINE; for URIC ACID / ALANINE AMINOTRANSFERASE / ALBUMIN / ALKALINE PHOSPHATASE / ASPARTATE AMINOTRANSFERASE / BLOOD UREA NITROGEN / CHLORIDE / CHOLESTEROL / CREATINE PHOSPHOKINASE / CREATININE / GLUCOSE / LACTATE DEHYDROGENASE / LIPASE / PHOSPHORUS / POTASSIUM / SODIUM / TOTAL BILIRUBIN / TOTAL PROTEIN: tissue Plasma
[1] = 5 mg/kg, 120 h, tissue Blood, dose level High, time 5 day
[2] = 5 mg/kg, 120 h, dose level High, time 5 day
[3] = 5 mg/kg, […], tissue Blood, dose level High, time 14 day
[4] = 5 mg/kg, […], tissue Blood, dose level High, time 28 day
[5] = 5 mg/kg, […], dose level High, time 14 day
[6] = 5 mg/kg, […], dose level High, time 28 day

## CARBOPLATIN
0 mg/kg, […], dose level Control, time 28 day
  URIC ACID: 1.26 mg/dL
[1]
  ABSOLUTE BASOPHIL: 26 cells/µL
  ABSOLUTE EOSINOPHIL: 44 cells/µL
  ABSOLUTE LYMPHOCYTE: 5500 cells/µL
  ABSOLUTE MONOCYTE: 120 cells/µL
  ABSOLUTE SEGMENTED NEUTROPHIL: 520 cells/µL
  BASOPHIL: 0.4%
  EOSINOPHIL: 0.72%
  ERYTHROCYTE COUNT: 7.51 x10E6/uL
  HEMATOCRIT: 46.82%
  LEUKOCYTE COUNT: 6.24 x10E3/uL
  LYMPHOCYTE: 88.18%
  MEAN CORPUSCULAR HEMOGLOBIN: 20.08 pg
  MEAN CORPUSCULAR HEMOGLOBIN CONCENTRATION: 32.18 G/DL
  MONOCYTE: 2.02%
  NEUTROPHIL: 8.22%
  PLATELET COUNT: 1572.2 x10E3/uL
[2]
  ALANINE AMINOTRANSFERASE: 21.4 u/L
  ALBUMIN: 3.62 G/DL
  ALKALINE PHOSPHATASE: 214.8 u/L
  ASPARTATE AMINOTRANSFERASE: 70.6 u/L
  BLOOD UREA NITROGEN: 14.6 mg/dL
  CHLORIDE: 107.4 MEQ/L
  CHOLESTEROL: 59.4 mg/dL
  CREATINE PHOSPHOKINASE: 192.6 u/L
  CREATININE: 0.54 mg/dL
  GLUCOSE: 139.6 mg/dL
  LACTATE DEHYDROGENASE: 65 u/L
  LIPASE: 27.2 u/L
  PHOSPHORUS: 11.28 mg/dL
  POTASSIUM: 5.36 MEQ/L
  SODIUM: 146.8 MEQ/L
  TOTAL BILIRUBIN: 0.18 mg/dL
  TOTAL PROTEIN: 6.16 G/DL
  URIC ACID: 1.16 mg/dL
[3]
  ABSOLUTE BASOPHIL: 130 cells/µL
  ABSOLUTE EOSINOPHIL: 88 cells/µL
  ABSOLUTE LYMPHOCYTE: 8780 cells/µL
  ABSOLUTE MONOCYTE: 260 cells/µL
  ABSOLUTE SEGMENTED NEUTROPHIL: 1370 cells/µL
  BASOPHIL: 1.28%
  EOSINOPHIL: 0.82%
  ERYTHROCYTE COUNT: 7.59 x10E6/uL
  HEMATOCRIT: 44.92%
  LEUKOCYTE COUNT: 10.68 x10E3/uL
  LYMPHOCYTE: 81.92%
  MEAN CORPUSCULAR HEMOGLOBIN: 19.52 pg
  MEAN CORPUSCULAR HEMOGLOBIN CONCENTRATION: 32.96 G/DL
  MONOCYTE: 2.38%
  NEUTROPHIL: 13.02%
  PLATELET COUNT: 1274 x10E3/uL
[4]
  ABSOLUTE BASOPHIL: 170 cells/µL
  ABSOLUTE EOSINOPHIL: 89 cells/µL
  ABSOLUTE LYMPHOCYTE: 9490 cells/µL
  ABSOLUTE MONOCYTE: 290 cells/µL
  ABSOLUTE SEGMENTED NEUTROPHIL: 1640 cells/µL
  BASOPHIL: 1.3%
  EOSINOPHIL: 0.78%
  ERYTHROCYTE COUNT: 8.56 x10E6/uL
  HEMATOCRIT: 50.05%
  LEUKOCYTE COUNT: 11.75 x10E3/uL
  LYMPHOCYTE: 81.13%
  MEAN CORPUSCULAR HEMOGLOBIN: 19.05 pg
  MEAN CORPUSCULAR HEMOGLOBIN CONCENTRATION: 32.58 G/DL
  MEAN CORPUSCULAR VOLUME: 58.46 fL
  MONOCYTE: 2.43%
  NEUTROPHIL: 13.81%
  PLATELET COUNT: 1331.9 x10E3/uL
[5]
  ALANINE AMINOTRANSFERASE: 30.2 u/L
  ALBUMIN: 3.48 G/DL
  ALKALINE PHOSPHATASE: 147.2 u/L
  ASPARTATE AMINOTRANSFERASE: 92.8 u/L
  BLOOD UREA NITROGEN: 12.2 mg/dL
  CHOLESTEROL: 54 mg/dL
  CREATINE PHOSPHOKINASE: 251.2 u/L
  CREATININE: 0.46 mg/dL
  GLUCOSE: 105.2 mg/dL
  LACTATE DEHYDROGENASE: 123.4 u/L
  LIPASE: 31.2 u/L
  PHOSPHORUS: 8.36 mg/dL
  POTASSIUM: 5.68 MEQ/L
  SODIUM: 149.4 MEQ/L
  TOTAL BILIRUBIN: 0.22 mg/dL
  TOTAL PROTEIN: 6.24 G/DL
  URIC ACID: 0.6 mg/dL
[6]
  ALANINE AMINOTRANSFERASE: 36.4 u/L
  ALBUMIN: 3.74 G/DL
  ALKALINE PHOSPHATASE: 135 u/L
  ASPARTATE AMINOTRANSFERASE: 95.6 u/L
  BLOOD UREA NITROGEN: 13.2 mg/dL
  CHLORIDE: 106.6 MEQ/L
  CHOLESTEROL: 55.8 mg/dL
  CREATINE PHOSPHOKINASE: 186.2 u/L
  CREATININE: 0.51 mg/dL
  GLUCOSE: 115.1 mg/dL
  LACTATE DEHYDROGENASE: 98.7 u/L
  LIPASE: 8.62 u/L
  PHOSPHORUS: 9.03 mg/dL
  POTASSIUM: 6.36 MEQ/L
  SODIUM: 150.9 MEQ/L
  TOTAL BILIRUBIN: 0.22 mg/dL

From ChEMBL document CHEMBL3885881, “DrugMatrix”
